Results taken from PubChem BioAssay (NCI).
Where “and” joins values, the source holds several entries; their conditions need not be identical. Equal values may be shown once.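 How tested: cells in 96-well plates exposed to compound for 48 hours at five concentrations. At the GI50, growth is halved. Definition used: TGI = concentration required for complete inhibition of growth.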

Tests used:
Test in all cases: inhibition of tumour cell growth, NCI panel, 48 h
786-0 renal = test system: 786-0 renal
A498 renal = test system: A498 renal
A549 NSCLC = test system: A549 NSCLC
ACHN renal = test system: ACHN renal
BT-549 breast = test system: BT-549 breast
CAKI-1 renal = test system: CAKI-1 renal
CCRF-CEM leukemia = test system: CCRF-CEM leukemia
DU-145 prostate = test system: DU-145 prostate
EKVX NSCLC = test system: EKVX NSCLC
HCC-2998 colon = test system: HCC-2998 colon
HCT-116 colon = test system: HCT-116 colon
HCT-15 colon = test system: HCT-15 colon
HL-60(TB) leukemia = test system: HL-60(TB) leukemia
HOP-62 NSCLC = test system: HOP-62 NSCLC
HOP-92 NSCLC = test system: HOP-92 NSCLC
HS 578T breast = test system: HS 578T breast
HT29 colon = test system: HT29 colon
IGROV1 ovarian = test system: IGROV1 ovarian
K-562 leukemia = test system: K-562 leukemia
KM12 colon = test system: KM12 colon
LOX IMVI melanoma = test system: LOX IMVI melanoma
M14 melanoma = test system: M14 melanoma
MALME-3M melanoma = test system: MALME-3M melanoma
MCF7 breast = test system: MCF7 breast
MDA-MB-231 breast = test system: MDA-MB-231 breast
MDA-MB-435 = test system: MDA-MB-435
MDA-N = test system: MDA-N
MOLT-4 leukemia = test system: MOLT-4 leukemia
NCI-H226 lung = test system: NCI-H226 lung
NCI-H23 lung = test system: NCI-H23 lung
NCI-H460 lung = test system: NCI-H460 lung
NCI-H522 lung = test system: NCI-H522 lung
NCI/ADR-RES ovarian = test system: NCI/ADR-RES ovarian
OVCAR-3 ovarian = test system: OVCAR-3 ovarian
OVCAR-4 ovarian = test system: OVCAR-4 ovarian
OVCAR-5 ovarian = test system: OVCAR-5 ovarian
OVCAR-8 ovarian = test system: OVCAR-8 ovarian
PC-3 prostate = test system: PC-3 prostate
RPMI-8226 leukemia = test system: RPMI-8226 leukemia
RXF 393 renal = test system: RXF 393 renal
SF-268 CNS = test system: SF-268 CNS
SF-295 CNS = test system: SF-295 CNS
SF-539 CNS = test system: SF-539 CNS
SK-MEL-2 melanoma = test system: SK-MEL-2 melanoma
SK-MEL-28 melanoma = test system: SK-MEL-28 melanoma
SK-MEL-5 melanoma = test system: SK-MEL-5 melanoma
SK-OV-3 ovarian = test system: SK-OV-3 ovarian
SN12C renal = test system: SN12C renal
SNB-19 CNS = test system: SNB-19 CNS
SNB-75 CNS = test system: SNB-75 CNS
SR leukemia = test system: SR leukemia
SW-620 colon = test system: SW-620 colon
T-47D breast = test system: T-47D breast
TK-10 renal = test system: TK-10 renal
U251 CNS = test system: U251 CNS
UACC-257 melanoma = test system: UACC-257 melanoma
UACC-62 melanoma = test system: UACC-62 melanoma
UO-31 renal = test system: UO-31 renal
COLO 205 colon = test system: COLO 205 colon

With `C=C1C(C(O)C[C@H](C)C2O[C@@]3(CCCCO3)CCC2C)O[C@@H]2CCC3(CCC(/C=C/[C@@H](C)C4CC(C)=CC5(O4)O[C@H](C[C@](C)(O)C(=O)O)CCC5O)O3)OC2[C@@H]1O` (stereo not given in full) the GI50 (786-0 renal) was 10.8 nM, the TGI (786-0 renal) was 27.2 nM and 34.3 nM and the GI50 (A498 renal) was 31.5 nM. The GI50 (A549 NSCLC) was 47.7 nM, the TGI (A549 NSCLC) was 255 nM and 258 nM and the GI50 (ACHN renal) was 25.9 nM. The TGI (ACHN renal) was 101 nM and 61.8 nM, the GI50 (BT-549 breast) was 3.37 nM and the TGI (BT-549 breast) was 11.5 nM and 27.6 nM. The GI50 (CAKI-1 renal) was 16.8 nM, the TGI (CAKI-1 renal) was 52.3 nM and 40.9 nM and the GI50 (CCRF-CEM leukemia) was 5.78 nM. For the same molecule, the TGI (CCRF-CEM leukemia) was 40.9 nM and 93.1 nM, the GI50 (DU-145 prostate) was 23.1 nM and the TGI (DU-145 prostate) was 137 nM and 37.7 nM. For the same molecule, the GI50 (EKVX NSCLC) was 19.2 nM, the TGI (EKVX NSCLC) was 124 nM and 17.4 nM and the TGI (HCC-2998 colon) was 9.25 nM. The GI50 (HCT-116 colon) was 5.57 nM, the GI50 (HCT-15 colon) was 46.1 nM and the TGI (HCT-15 colon) was 203 nM and 55 nM. For the same molecule, the GI50 (HL-60(TB) leukemia) was 1.62 nM, the TGI (HL-60(TB) leukemia) was 7.8 nM and 16 nM and the GI50 (HOP-62 NSCLC) was 7.4 nM and 3.98 nM. The TGI (HOP-62 NSCLC) was 25.5 nM and 10.9 nM, the GI50 (HOP-92 NSCLC) was 13 nM and the TGI (HOP-92 NSCLC) was 38.6 nM and 9.11 nM. For the same molecule, the GI50 (HS 578T breast) was 2.65 nM, the TGI (HS 578T breast) was 27.1 nM and 19 nM and the GI50 (HT29 colon) was 21 nM. The TGI (HT29 colon) was 56.1 nM and 39.6 nM, the GI50 (IGROV1 ovarian) was 32.2 nM and the TGI (IGROV1 ovarian) was 137 nM and 64.1 nM. For the same molecule, the TGI (K-562 leukemia) was 163 nM and 303 nM, the GI50 (KM12 colon) was 6.28 nM and the GI50 (LOX IMVI melanoma) was 5.88 nM. The GI50 (M14 melanoma) was 2.77 nM, the TGI (M14 melanoma) was 9.85 nM and 6.27 nM and the GI50 (MALME-3M melanoma) was 9.97 nM. The GI50 (MCF7 breast) was 19.9 nM, the TGI (MCF7 breast) was 44.1 nM and 20.7 nM and the GI50 (MDA-MB-231 breast) was 11.7 nM. The GI50 (MDA-MB-435) was 7.36 nM, the GI50 (MDA-N) was 5.35 nM and the GI50 (MOLT-4 leukemia) was 24.1 nM. For the same molecule, the TGI (MOLT-4 leukemia) was 61.5 nM and 53.5 nM, the TGI (NCI-H226 lung) was 8.28 nM and the TGI (NCI-H23 lung) was 32.3 nM. The GI50 (NCI-H460 lung) was 6.31 nM, the TGI (NCI-H460 lung) was 33.2 nM and 43.7 nM and the GI50 (NCI-H522 lung) was 6.29 nM. The TGI (NCI-H522 lung) was 28.8 nM and 5.39 nM, the GI50 (NCI/ADR-RES ovarian) was 111 nM and the TGI (NCI/ADR-RES ovarian) was > 1000 nM and 778 nM. For the same molecule, the GI50 (OVCAR-3 ovarian) was 12.1 nM, the TGI (OVCAR-3 ovarian) was 31.6 nM and 9.27 nM and the GI50 (OVCAR-4 ovarian) was 23.1 nM. The TGI (OVCAR-4 ovarian) was 89.8 nM and 62.7 nM, the GI50 (OVCAR-5 ovarian) was 7.06 nM and the TGI (OVCAR-5 ovarian) was 23.9 nM and 27.5 nM. The GI50 (OVCAR-8 ovarian) was 26.5 nM, the GI50 (PC-3 prostate) was 12.6 nM and the TGI (PC-3 prostate) was 35.2 nM and 19.1 nM. For the same molecule, the GI50 (RPMI-8226 leukemia) was 4.22 nM, the TGI (RPMI-8226 leukemia) was 31.4 nM and 17.3 nM and the GI50 (RXF 393 renal) was 0.277 nM. The TGI (SF-268 CNS) was 8.56 nM, the GI50 (SF-295 CNS) was 7.48 nM and the TGI (SF-295 CNS) was 86.7 nM and 25.9 nM. For the same molecule, the GI50 (SF-539 CNS) was 4.56 nM, the TGI (SF-539 CNS) was 17.5 nM and 9.41 nM and the GI50 (SK-MEL-2 melanoma) was 3.53 nM. For the same molecule, the TGI (SK-MEL-2 melanoma) was 11.2 nM and 8.49 nM, the GI50 (SK-MEL-28 melanoma) was 4.33 nM and the TGI (SK-MEL-28 melanoma) was 15.1 nM and 6.35 nM. The TGI (SK-MEL-5 melanoma) was 15.5 nM and 7.96 nM, the GI50 (SK-OV-3 ovarian) was 10.6 nM and the TGI (SK-OV-3 ovarian) was 42.1 nM and 34.8 nM. For the same molecule, the GI50 (SN12C renal) was 20.2 nM, the GI50 (SNB-19 CNS) was 4.86 nM and the TGI (SNB-19 CNS) was 15.8 nM and 15.1 nM. For the same molecule, the GI50 (SNB-75 CNS) was 4.7 nM, the TGI (SNB-75 CNS) was 39.5 nM and 4.2 nM and the GI50 (SR leukemia) was 54.1 nM. The GI50 (SW-620 colon) was 23.1 nM, the TGI (SW-620 colon) was 252 nM and 102 nM and the GI50 (T-47D breast) was 13.1 nM. For the same molecule, the TGI (T-47D breast) was 185 nM and 64.1 nM, the GI50 (TK-10 renal) was 67 nM and the TGI (TK-10 renal) was 202 nM and 36.2 nM. The GI50 (U251 CNS) was 8.08 nM, the GI50 (UACC-257 melanoma) was 13.7 nM and the TGI (UACC-257 melanoma) was 34.2 nM and 23.3 nM. The GI50 (UACC-62 melanoma) was 4.29 nM, the TGI (UACC-62 melanoma) was 16.1 nM and 8.61 nM and the GI50 (UO-31 renal) was 96 nM. For the same molecule, the TGI (UO-31 renal) was 238 nM and 101 nM.
Molecule `N#C/C(=C/N1C(=O)/C(=C/c2ccc([N+](=O)[O-])cc2)SC1=S)c1nc2ccccc2s1` has a TGI (786-0 renal) of over 100000 nM, a TGI (A498 renal) of 33200 nM and a TGI (A549 NSCLC) of over 100000 nM. For the same molecule, the TGI (ACHN renal) was 55300 nM, the TGI (BT-549 breast) was 73700 nM and the TGI (CAKI-1 renal) was over 100000 nM. It also gave a TGI (CCRF-CEM leukemia) of over 100000 nM, a TGI (COLO 205 colon) of 30000 nM and a TGI (DU-145 prostate) of over 100000 nM. For the same molecule, the TGI (EKVX NSCLC) was 61400 nM, the TGI (HCC-2998 colon) was 29900 nM and the TGI (HCT-116 colon) was 32700 nM. The TGI (HCT-15 colon) was over 100000 nM, the TGI (HL-60(TB) leukemia) was over 100000 nM and the TGI (HOP-62 NSCLC) was 7320 nM. For the same molecule, the TGI (HOP-92 NSCLC) was 63300 nM, the TGI (HS 578T breast) was over 100000 nM and the TGI (HT29 colon) was over 100000 nM. It also gave a TGI (IGROV1 ovarian) of over 100000 nM, a TGI (K-562 leukemia) of over 100000 nM and a TGI (KM12 colon) of over 100000 nM. The TGI (LOX IMVI melanoma) was over 100000 nM, the TGI (M14 melanoma) was 98500 nM and the TGI (MALME-3M melanoma) was 73300 nM. It also gave a TGI (MCF7 breast) of 83200 nM, a TGI (MDA-MB-231 breast) of 37000 nM and a TGI (MDA-MB-435) of over 100000 nM. For the same molecule, the TGI (MDA-N) was over 100000 nM, the TGI (NCI-H226 lung) was 78400 nM and the TGI (NCI-H23 lung) was 89100 nM. It also gave a TGI (NCI-H460 lung) of 43800 nM, a TGI (NCI-H522 lung) of 53800 nM and a TGI (NCI/ADR-RES ovarian) of over 100000 nM. The TGI (OVCAR-3 ovarian) was 15900 nM, the TGI (OVCAR-4 ovarian) was over 100000 nM and the TGI (OVCAR-5 ovarian) was 80800 nM. The TGI (OVCAR-8 ovarian) was over 100000 nM, the TGI (PC-3 prostate) was 40400 nM and the TGI (RPMI-8226 leukemia) was 68700 nM. For the same molecule, the TGI (RXF 393 renal) was 52600 nM, the TGI (SF-268 CNS) was over 100000 nM and the TGI (SF-295 CNS) was 33900 nM. It also gave a TGI (SF-539 CNS) of over 100000 nM, a TGI (SK-MEL-2 melanoma) of 36000 nM and a TGI (SK-MEL-28 melanoma) of over 100000 nM. It also gave a TGI (SK-MEL-5 melanoma) of 26900 nM, a TGI (SK-OV-3 ovarian) of 43600 nM and a TGI (SN12C renal) of 81000 nM. The TGI (SNB-19 CNS) was over 100000 nM, the TGI (SNB-75 CNS) was 69200 nM and the TGI (SR leukemia) was over 100000 nM. For the same molecule, the TGI (SW-620 colon) was over 100000 nM, the TGI (T-47D breast) was 69500 nM and the TGI (TK-10 renal) was 66900 nM. The TGI (U251 CNS) was 41700 nM, the TGI (UACC-257 melanoma) was 40500 nM and the TGI (UACC-62 melanoma) was 24000 nM. The TGI (UO-31 renal) was 63300 nM.
